The values that follow come from patent US12304912B2, “Fused bicyclic RAF inhibitors and methods for use thereof” (Jazz Pharmaceuticals Ireland Limited, priority 2020, dated 2025).

What is called microsomal CLint is the rate of metabolic loss divided by the concentration.

Data set [1] can be described thus: Microsomal stability assay, human liver microsomes (HLM). The data set is classed as in vitro ADME. The settings on record: 0.5 mg/mL protein, 1 μM substrate. The method in brief:
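Half-life and CLint come from the ln(% remaining)–time slope, with remaining compound quantified by LC-MS/MS after ice-cold solvent quench of timed samples. Incubations used 1 μM test compound and 0.5 mg·mL^−1 human or mouse liver microsomal protein at 37° C.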
(Liver microsomes are a subcellular fraction often used to study metabolism.)

Data set [2] in a line: Plasma protein binding assay, mouse plasma (mPPB). The data set is classed as in vitro ADME. Particulars: 5 μM. The method in brief:
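Equilibrium dialysis of 5 μM compound in previously frozen human or mouse plasma against phosphate buffer, 4 h at 37 °C. Both chambers quantified by LC-MS/MS; % free = (1−((PC−PF)/PC))×100.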

The nature of data set [3]: Solubility (Sol), medium not stated. The data set is classed as physicochemical. The settings on record: cells not marked (FESSIF).
The nature of another data set: FeSSIF solubility assay. The data set is classed as physicochemical. The settings on record: fed state simulated intestinal fluid (FeSSIF), thermodynamic from solid, pH 5 acetate buffer, 37° C. On the procedure:
FeSSIF Solubility Assay 1 mL of fed state simulated intestinal fluid (FeSSIF), prepared using FaSSIF/FeSSIF/FaSSGF powder (Biorelevant.com) and pH 5 acetate buffer, was added to 1.0 mg of compound and then incubated for 24 h (Bioshake iQ, 650 rpm, 37° C.). Following filtration under positive pressure, the concentration of compound in solution was assessed by LC-UV in comparison to the response for a calibration standard of known concentration (250 μM). FeSSIF solubility results are described in Tables 1-2.

The next data set deals with WiDr cells. The experiment in a line: WiDr CellTiter-Glo 3D cell proliferation assay. The data set is classed as cell-based. The settings on record: Homo sapiens; WiDr cells, 3D proliferation; read-out: 3D WiDr pGI50 (converted). For orientation: In ATP-based viability assays light output follows the ATP content of the culture.
Where [4] appears, read: equilibrium dialysis 4 hours 37° C.
The mark [5] stands for this setting: equilibrium dialysis 4 hours at 37° C.

≈ marks a conversion by molar mass, not a printed value. Structures can show the parent of a compound that is named as a salt. Where two headings read alike, the source gives them in different places. Where only a bound is given, the exact number is not on record here.

As to `O=C1CCc2c(Oc3ccc4c(c3)CC(c3nc5cc(C(F)(F)F)ncc5[nH]3)CO4)ccnc2N1` (racemic) [Compound 32], in data set [1], the intrinsic metabolic clearance (microsomal CLint) at 1 μM stood at 11.3 µL/min/mg. Besides, in data set [2] (setting [4]), the “mPPB (% free)” value is on record as 3.2 % free. The Sol in data set [3] is on record as below 1.2 mg/L.

As to `O=C1CCc2c(Oc3ccc4c(c3)CC(c3nc(-c5cccc(C(F)(F)F)c5)c[nH]3)CO4)ccnc2N1` (centres unmarked) [Compound 12, 5-[3-[4-[3-(trifluoromethyl)phenyl]-1H-imidazol-2-yl]chroman-6-yl]oxy-3,4-dihydro-1H-1,8-naphthyridin-2-one], the microsomal CLint at 1 μM in data set [1] worked out at 88.6 µL/min/mg. The “mPPB (% free)” value in data set [2] (setting [4]) is below 0.1 % free. In data set [3], this compound yielded a Sol below 1.3 mg/L.

`COc1cc(-c2c[nH]c(C3COc4ccc(Oc5ccnc6c5CCC(=O)N6)cc4C3)n2)ccn1` (centres unmarked) [Compound 19, 5-[3-[4-(2-methoxy-4-pyridyl)-1H-imidazol-2-yl]chroman-6-yl]oxy-3,4-dihydro-1H-1,8-naphthyridin-2-one]: the solubility thermodynamic at 24 h in “FeSSIF solubility assay” (read-out: Sol (FESSIF)) was 19.6 µg/mL (≈ 41.7 µM). For the same compound, the microsomal CLint at 1 μM in data set [1] came to 27.8 µL/min/mg. Also, in data set [2] (setting [4]), the “mPPB (% free)” value turned out to be 1.5 % free.

Take `O=C1CCc2c(Oc3ccc4c(c3)CC(c3nc5cc(C(F)(F)F)ccc5[nH]3)CO4)ccnc2N1` (centres unmarked) [Compound 22, 5-[3-[6-(trifluoromethyl)-1H-benzimidazol-2-yl]chroman-6-yl]oxy-3,4-dihydro-1H-1,8-naphthyridin-2-one]: the intrinsic clearance (microsomal CLint) at 1 μM in data set [1] was 35.9 µL/min/mg. For the same compound, in data set [2] (setting [4]), the “mPPB (% free)” value was below 0.1 % free. Besides, in data set [3], the Sol was below 1.2 mg/L.

Turning to `O=C1CCc2c(Oc3ccc4c(c3)CC(c3nc5cc(F)c(F)cc5[nH]3)CO4)ccnc2N1` (centres unmarked) [Compound 23], in data set [1], the microsomal CLint at 1 μM was 29.9 µL/min/mg. Besides, the “mPPB (% free)” value in data set [2] (setting [4]) is reported as 0.5 % free. Further, the Sol in data set [3] was below 1.1 mg/L.

Turning to `N#Cc1ccc2[nH]c(C3COc4ccc(Oc5ccnc6c5CCC(=O)N6)cc4C3)nc2c1` (centres unmarked) [Compound 24], the microsomal CLint at 1 μM in data set [1] came to 12.7 µL/min/mg. Moreover, the “mPPB (% free)” value in data set [2] (setting [4]) turned out to be 1.9 % free. This compound displayed a Sol in data set [3] below 1.1 mg/L.

Take `O=C1CCc2c(Oc3ccc4c(c3)CC(c3nc5cc(Cl)ccc5[nH]3)CO4)ccnc2N1` (centres unmarked) [Compound 25]: the solubility thermodynamic at 24 h in the data set “FeSSIF solubility assay” (read-out: Sol (FESSIF)) is 1.8 µg/mL (≈ 4.03 µM). Also, the intrinsic metabolic clearance (microsomal CLint) at 1 μM in data set [1] came to 50.1 µL/min/mg. In addition, the “mPPB (% free)” value in data set [2] (setting [4]) stood at 1.5 % free.

For the compound `CN(C)c1ccc2[nH]c(C3COc4ccc(Oc5ccnc6c5CCC(=O)N6)cc4C3)nc2c1` (centres unmarked) [Compound 26], the intrinsic clearance (microsomal CLint) at 1 μM in data set [1] came out at 77.5 µL/min/mg. For the same compound, the “mPPB (% free)” value in data set [2] (setting [4]) turned out to be 1 % free. The compound further had a Sol in data set [3] below 1.1 mg/L.

Regarding `Cc1cc2nc(C3COc4ccc(Oc5ccnc6c5CCC(=O)N6)cc4C3)[nH]c2cc1C` (centres unmarked) [Compound 29], the microsomal CLint at 1 μM in data set [1] was 119 µL/min/mg. Moreover, in data set [2] (setting [4]), the “mPPB (% free)” value is reported as 0.6 % free. Besides, in data set [3], the Sol is on record as below 1.1 mg/L.

Take `O=C1CCc2c(Oc3ccc4c(c3)CN(c3nc(-c5ccccc5)n[nH]3)CC4)ccnc2N1` [Compound 44, 5-[[2-(3-phenyl-1H-1,2,4-triazol-5-yl)-3,4-dihydro-1H-isoquinolin-7-yl]oxy]-3,4-dihydro-1H-1,8-naphthyridin-2-one hydrochloride]: the intrinsic metabolic clearance (microsomal CLint) at 1 μM in data set [1] was determined as 14.2 µL/min/mg. Moreover, the “mPPB (% free)” value in data set [2] (setting [4]) is 0.9 % free. The Sol in data set [3] is reported as below 1.2 mg/L.

On to `O=C(Nc1cc(Oc2ccc3c(c2)CC(c2nc(-c4ccccc4)c[nH]2)CO3)ccn1)C1CC1` (centres unmarked) [Compound 45, N-[4-[3-(4-phenyl-1H-imidazol-2-yl)chroman-6-yl]oxy-2-pyridyl]cyclopropanecarboxamide], for which the microsomal CLint at 1 μM in data set [1] was 58.1 µL/min/mg. Further, in data set [2] (setting [4]), the “mPPB (% free)” value worked out at 0.2 % free. In data set [3], this compound gave a Sol below 1.2 mg/L.

`O=C1CCc2c(Oc3ccc4c(c3)CN(C(=O)Nc3ccc(C(F)(F)F)cc3)CC4)ccnc2N1` [Compound 47]: the solubility thermodynamic at 24 h in “FeSSIF solubility assay” (read-out: Sol (FESSIF)) is 27.5 µg/mL (≈ 57 µM). Besides, the intrinsic metabolic clearance (microsomal CLint) at 1 μM in data set [1] stood at 24.5 µL/min/mg. Further, the “mPPB (% free)” value in data set [2] (setting [4]) is listed as 0.3 % free.

Regarding `O=C1CCc2c(Oc3ccc4c(c3)CN(C(=O)Nc3cccc(C(F)(F)F)c3)CC4)ccnc2N1` [Compound 50], the microsomal CLint at 1 μM in data set [1] stood at 70.4 µL/min/mg. In data set [2] (setting [4]), the “mPPB (% free)” value came to 1.6 % free. For the same compound, in data set [3], the Sol is below 1.2 mg/L.

In the case of `Cc1cc(-c2c[nH]c(C3COc4ccc(Oc5ccnc6c5CCC(=O)N6)cc4C3)n2)n(C(C)C)n1` (centres unmarked) [Compound 112, 5-[3-[4-(2-isopropyl-5-methyl-pyrazol-3-yl)-1H-imidazol-2-yl]chroman-6-yl]oxy-3,4-dihydro-1H-1,8-naphthyridin-2-one], the solubility thermodynamic at 24 h in “FeSSIF solubility assay” (read-out: FESSIF Sol) was 51.1 µg/mL (≈ 105 µM). Besides, the microsomal CLint at 1 μM in data set [1] (37° C.) was found to be 81.5 µL/min/mg. In addition, the “mPPB (% free)” value in data set [2] (setting [5]) was determined as 2.0 % free.

For the compound `CCc1cc(-c2c[nH]c(C3COc4ccc(Oc5ccnc6c5CCC(=O)N6)cc4C3)n2)n(C2CC2)n1` (centres unmarked) [Compound 113, 5-[3-[4-(2-cyclopropyl-5-ethyl-pyrazol-3-yl)-1H-imidazol-2-yl]chroman-6-yl]oxy-3,4-dihydro-1H-1,8-naphthyridin-2-one], the solubility thermodynamic at 24 h in the data set “FeSSIF solubility assay” (read-out: FESSIF Sol) is 140 µg/mL (≈ 281 µM). For the same compound, in data set [1] (37° C.), the intrinsic clearance (microsomal CLint) at 1 μM was 82.1 µL/min/mg. Moreover, in data set [2] (setting [5]), the “mPPB (% free)” value amounted to 1.6 % free.

Regarding `Cc1cc(-c2c[nH]c(C3COc4ccc(Oc5ccnc6c5CCC(=O)N6)cc4C3)n2)n(C2CC2)n1` (centres unmarked) [Compound 114, 5-[3-[4-(2-cyclopropyl-5-methyl-pyrazol-3-yl)-1H-imidazol-2-yl]chroman-6-yl]oxy-3,4-dihydro-1H-1,8-naphthyridin-2-one], the solubility thermodynamic at 24 h in the data set “FeSSIF solubility assay” (read-out: FESSIF Sol) was 497 µg/mL (≈ 1030 µM). Moreover, in data set [1] (37° C.), the intrinsic metabolic clearance (microsomal CLint) at 1 μM is 38.5 µL/min/mg. Further, in data set [2] (setting [5]), the “mPPB (% free)” value is 2.0 % free.

With `Cc1cc(-c2c[nH]c(C3COc4ccc(Oc5ccnc6c5CCC(=O)N6)cc4C3)n2)n(CC(F)(F)F)n1` (centres unmarked) [Compound 126, 5-[3-[4-[5-methyl-2-(2,2,2-trifluoroethyl)pyrazol-3-yl]-1H-imidazol-2-yl]chroman-6-yl]oxy-3,4-dihydro-1H-1,8-naphthyridin-2-one], the GI50 in the data set with WiDr cells was 15.1 µM. Further, in the data set “FeSSIF solubility assay” (read-out: FESSIF Sol), the solubility thermodynamic at 24 h was below 1.3 µg/mL. The microsomal CLint at 1 μM in data set [1] (37° C.) amounted to 121 µL/min/mg. In addition, the “mPPB (% free)” value in data set [2] (setting [5]) amounted to 0.7 % free.

As to `O=C1CCc2c(Oc3ccc4c(c3)CC(c3nc(-c5ccc(C(F)(F)F)nc5)c[nH]3)CO4)ccnc2N1` (centres unmarked) [Compound 127, 5-[3-[4-[6-(trifluoromethyl)-3-pyridyl]-1H-imidazol-2-yl]chroman-6-yl]oxy-3,4-dihydro-1H-1,8-naphthyridin-2-one], the solubility thermodynamic at 24 h in “FeSSIF solubility assay” (read-out: FESSIF Sol) is 6 µg/mL (≈ 11.8 µM). Also, the microsomal CLint at 1 μM in data set [1] (37° C.) was found to be 38.7 µL/min/mg. Further, in data set [2] (setting [5]), the “mPPB (% free)” value is on record as 0.2 % free.

Turning to `O=C1CCc2c(Oc3ccc4c(c3)CC(c3nc(-c5cccnc5C(F)(F)F)c[nH]3)CO4)ccnc2N1` (centres unmarked) [Compound 128, 5-[3-[4-[2-(trifluoromethyl)-3-pyridyl]-1H-imidazol-2-yl]chroman-6-yl]oxy-3,4-dihydro-1H-1,8-naphthyridin-2-one], in “FeSSIF solubility assay” (read-out: FESSIF Sol), the solubility thermodynamic at 24 h was 1.6 µg/mL (≈ 3.15 µM). In addition, in data set [2] (setting [5]), the “mPPB (% free)” value is on record as 1.2 % free.

On to `O=C(Nc1cc(Oc2ccc3c(c2)CC(c2nc(-c4ccccc4)c[nH]2)CO3)ccn1)C1(F)CC1` (centres unmarked) [Compound 138], for which the microsomal CLint at 1 μM in data set [1] (37° C.) was found to be 134 µL/min/mg. In addition, in data set [2] (setting [5]), the “mPPB (% free)” value is given as below 0.1 % free.

Take `O=C(Nc1cc(Oc2ccc3c(c2)CC(c2nc(-c4ccccc4)c[nH]2)CO3)ccn1)C1CC(F)(F)C1` (centres unmarked) [Compound 139]: in the data set “FeSSIF solubility assay” (read-out: FESSIF Sol), the solubility thermodynamic at 24 h is 107 µg/mL (≈ 212 µM). Moreover, the microsomal CLint at 1 μM in data set [1] (37° C.) stood at 99.8 µL/min/mg. For the same compound, the “mPPB (% free)” value in data set [2] (setting [5]) was below 0.1 % free.
